The nature of the assay: Plasma glucose levels in diabetic mice. It is filed as in vivo, mouse. As to conditions: 2 mM NAC for 3 weeks, 4 week diabetic mice. As for the experimental part: Plasma levels in diabetic mice were elevated at ˜[…] which was 3-fold higher than controls (˜200 mg/dL). The percent (%) brain infarct area in vehicle- and STZ treated mice is linearly correlated with the plasma glucose level.
Four-week-old male C57BL/6J mice, weighing 18-20 g, were purchased from Jackson Laboratory. These mice were maintained at the Animal Facility of the Louisiana State University Health Sciences Center—Shreveport. Animal care and use in the experiments follow the guidelines in the Guide for the Care and Use of Laboratory Animals, published by the US National Institutes of Health. Following adaptation for 1 week, the mice were divided randomly into 4 groups: non-treated sham operation group (NT-sham group, n=6), non-treated I/R group (NT-I/R group, n=5), vehicle I/R group (Veh-I/R group, n=24), and streptozotocin I/R group (STZ-I/R group, n=19). […] On day 7, mice whose plasma glucose was more than 300 mg/dl were deemed to be diabetic. […] Another Veh-treated mice were injected (intraperitoneally, 12 hr interval) with 0.5M BSO 24 h before the ischemia operation and during the 24 h reperfusion period (Veh+BSO group, n=10). All mice were 9 weeks old at sacrifice.

The structures appear in SMILES notation.

Consider `CC(=O)N[C@@H](CS)C(=O)O` [NAC, N-acetylcysteine], for which the plasma glucose levels entry is reported as “did not alter”.

The values are drawn from patent US20180036270A1, “A METHOD OF PROTECTING AGAINST CARBONYL STRESS INDUCED ISCHEMIA-REPERFUSION INJURY IN THE DIABETIC BRAIN VIA ADMINISTRATION OF N-ACETYLCYSTEINE” (Board of Supervisors of Louisiana State University and …, priority 2015, published 2018).
